Laboratory results reported in patent US20050182025A1, “Amidinylphenyl compounds and their use as fungicides” (priority 2002, published 2005).

Legend:
Assay type in all cases: in vivo
Septoria nodorum = experiment: Test C: preventive spray on wheat seedlings, Septoria glume blotch, disease rating; conditions: wheat seedlings sprayed to run-off, inoculated the following day with Septoria nodorum, 48 h saturated atmosphere then 9 days at 20° C.; test concentration not given
Method in brief: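 Preventive test: one day after spraying (to run-off; 200 ppm ≈ 500 g/ha, in acetone/water with 250 ppm surfactant), seedlings received a S. nodorum spore suspension. After 48 h in saturated air and 9 days in a growth chamber, both at 20° C., % disease control versus controls was scored.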

Puccinia recondita = experiment: Test B: preventive spray on wheat seedlings, wheat leaf rust, disease rating; conditions: wheat seedlings sprayed to run-off, inoculated the following day with Puccinia recondita, 24 h saturated atmosphere then 6 days at 20° C.; test concentration not given
Method in brief: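 Preventive test: seedlings inoculated with Puccinia recondita one day after run-off spraying with test suspension (acetone/water, 250 ppm Trem 014; 200 ppm equals 500 g/ha). Rating after 24 h at 20° C in saturation plus 6 days in 20° C growth chamber; 0–100 scale versus controls.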

[1] = system: Erysiphe graminis f. sp. tritici; experiment: Test A: preventive spray on wheat seedlings, wheat powdery mildew, disease rating; conditions: wheat seedlings sprayed to run-off, inoculated the following day with Erysiphe graminis f. sp. tritici, rated after 7 days at 20° C.; test concentration not given
Method in brief: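 Preventive test: Erysiphe graminis f. sp. tritici spore dust applied one day after run-off spraying of seedlings with acetone/water/surfactant suspension, 200 ppm equating to 500 g/ha. Plants held 7 days at 20 °C; ratings give % disease control versus controls, 100 full, 0 none.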

SMILES	Test C disease control rating (100 = 100% disease control, 0 = no disease control relative to the controls) (Septoria nodorum) [%]	Test B disease control rating (100 = 100% disease control, 0 = no disease control relative to the controls) (Puccinia recondita) [%]	Test A disease control rating (100 = 100% disease control, 0 = no disease control relative to the controls) [1] [%]
CCN(C)C=Nc1cc(Cl)c(OCCC[Si](C)(C)CC)cc1C [compound 57]	100	100	100
CCN(C)C(=Nc1cc(Cl)c(OCCC[Si](C)(C)C)cc1C)C(=O)OC [compound 129]	67	100	100
C=CCN(C)C(=S)Nc1cc(Cl)c(OCCC[Si](C)(C)C)c(Cl)c1Cl [compound 83]	0	9	0
CN(C)C(=S)Nc1cc(Cl)c(OCCC[Si](C)(C)C)cc1Cl [compound 183]	90	85	99
CC(=Nc1cc(Cl)c(OCCCC(C)C)cc1C)N(C)C [compound 110]	99	97	42
Cc1cc(OCC=CC(C)(C)C)c(C)cc1N=CN(C)C [Compound 40]	100	100	97
CC(C)CCCOc1cc(Cl)c(N=CN(C)C)cc1Cl [compound 126]	100	40	95
CCN(C)C=Nc1cc(C(C)C)c(OCCC[Si](C)(C)C)cc1C [compound 76]	100	100	100
CCN(C)C=Nc1cc(C)c(OCCCC(C)(C)C)cc1C [compound 199]	100	100	100
Cc1cc(OCCOC(C)(C)C)c(C)cc1N=CN(C)C [Compound 41]	47	99	79
CCN(C(=S)Nc1cc(Cl)c(OCCCC(C)C)cc1Cl)C(C)C [compound 127]	100	99	0
CCCN(C)C(=S)Nc1cc(C(C)C)c(OCCC[Si](C)(C)C)cc1C [compound 93]	99	100	99
CCCCCC(CCCCC)Oc1cc(C)c(N=CN(C)C)cc1C [Compound 30]	0	100	0
Cc1cc(OCCCC(C)C)c(C)cc1NC(=S)N(C)C [compound 107]	99	99	60
CCC(CCC(C)C)Oc1cc(C)c(N=C(C)N(C)C)cc1C (stereo not drawn) [compound 100]	76	86	0
Cc1c(NC(=S)N(C)C)cc(Cl)c(OCCC[Si](C)(C)C)c1Cl [compound 180]	0	58	75

SMILES	Test C disease control rating (100 = 100% disease control, 0 = no disease control relative to the controls) (Septoria nodorum) [%]	Test B disease control rating (100 = 100% disease control, 0 = no disease control relative to the controls) (Puccinia recondita) [%]	Test A disease control rating (100 = 100% disease control, 0 = no disease control relative to the controls) [1] [%]
Cc1cc(OCCC(C)C)c(C)cc1N=CN(C)C [Compound 8]	98	100	97
COC(=O)C(=Nc1cc(Cl)c(OCCC[Si](C)(C)C)cc1C)N(C)C [compound 130]	0	97	100
CN(C)C(=S)Nc1cc(Cl)c(OCCCC(C)(C)C)cc1Cl [compound 186]	0	9	94
Cc1cc(OCCC[Si](C)(C)C)c(C)cc1N=CN(C)C [Compound 26, N′-[2,5-Dimethyl-4-[3-(trimethylsilyl)propoxy]phenyl]-N,N-dimethylmethanimidamide]	100	100	98
CC(C)=CCCC(C)=CCCC(C)=CCOc1cc(C)c(N=CN(C)C)cc1C [Compound 3]	0	87	0
CCN(CC)C(=S)Nc1cc(Cl)c(OCCCC(C)C)c(Cl)c1C [compound 117]	60	37	29
Cc1cc(SCCCC(C)C)c(C)cc1N=CN(C)C [compound 156]	100	100	93
Cc1cc(OCCC[Si](C)(C)C)c(Cl)cc1N=CN(C)C [compound 172]	100	100	100
Cc1c(N=CN(C)C)cc(Cl)c(OCCCC(C)C)c1Cl [compound 115]	100	85	85
Cc1cc(OCCC(C)(C)C)c(C)cc1N=CN(C)C [Compound 12]	80	100	97
CCCCC(CCC)Sc1cc(C)c(N=CN(C)C)cc1C (stereo not drawn) [compound 160]	0	55	0
CCCCC(CCCC)Sc1cc(C)c(N=C(C)N(C)C)cc1C [compound 143]	80	0	0
Cc1cc(OC(C)CCC(C)C)c(C)cc1N=CN(C)C (stereo not drawn) [Compound 32]	95	100	97
CCCCC(CCCC)Oc1cc(C)c(N=CN(C)C)cc1C [Compound 28, N′-[4-[(1-Butylpentyl)oxy]-2,5-dimethylphenyl]-N,N-dimethylmethanimidamide]	0	97	0
Cc1cc(NC(=S)N(C)C)c(C)c(Cl)c1OCCCC(C)C [compound 136]	84	91	95
